Some test systems named below: PC-3 prostate; SR leukemia; MCF7 breast; BT-549 breast; NCI/ADR-RES ovarian; SF-295 CNS; HS 578T breast; COLO 205 colon; ACHN renal; OVCAR-5 ovarian.
Common to all, as to test: NCI anticancer screen, dose series, 48 h

Where “and” joins values, the source holds several entries; their conditions need not be identical. Equal entries are not always repeated.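 Cultured in 96-well plates, cells were exposed to test compound for 48 hours across five concentrations. GI50 = concentration required for 50% inhibition of growth. TGI: concentration producing complete growth inhibition.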

For `Cc1cc(N2CCOCC2)nc(N[C@@H]2CCC[C@H](Nc3ccnc4cc(Cl)ccc34)C2)n1`, the GI50 is 2.38 µM in the test with PC-3 prostate; 1.05 µM with SR leukemia; 1.76 µM in the test with MCF7 breast; 2.34 µM with BT-549 breast; 2.59 µM in the test with NCI/ADR-RES ovarian; 1.52 µM with SF-295 CNS. The GI50 in the test on HS 578T breast is 1.84 µM; in the test on COLO 205 colon, 1.68 µM; with ACHN renal, 1.89 µM; with OVCAR-5 ovarian, 3.1 µM. Moreover, the TGI in the test with PC-3 prostate was found to be 6.01 µM; with SR leukemia, 3.83 µM; in the test with MCF7 breast it was 4.15 µM; with BT-549 breast, 5.01 µM; in the test with NCI/ADR-RES ovarian, 8 µM; in the test on SF-295 CNS, 2.97 µM. The TGI was 5.14 µM in the test with HS 578T breast, 3.33 µM in the test with COLO 205 colon, 3.91 µM in the test on ACHN renal and 11.2 µM with OVCAR-5 ovarian.

With `O=C(NCCCO)c1cc(Cl)ccc1O`, the GI50 in the test with PC-3 prostate was 2.06 µM; with SR leukemia, 3.24 µM; in the test with MCF7 breast, 2.64 µM; with BT-549 breast it was 3.27 µM; with NCI/ADR-RES ovarian, 9.31 µM; with SF-295 CNS, 1.36 µM. Also, the GI50 with HS 578T breast was 3.98 µM; with COLO 205 colon, 1.95 µM; in the test with ACHN renal, 3.73 µM; in the test on OVCAR-5 ovarian it was 4.4 µM. Besides, the TGI stood at 10.2 µM in the test with PC-3 prostate; 18.2 µM in the test on SR leukemia; 11.9 µM in the test on MCF7 breast; 12.7 µM in the test on BT-549 breast; 27.9 µM in the test on NCI/ADR-RES ovarian; 6.01 µM with SF-295 CNS. The TGI in the test on HS 578T breast worked out at 21.4 µM; in the test on COLO 205 colon, 5.85 µM; in the test on ACHN renal, 13.2 µM; in the test on OVCAR-5 ovarian it was 19.9 µM.

On to `CCC(=C/[C@H](C)C/C=C/C(C)=C/[C@@H](C)C(=O)[C@@H](C)[C@H](O)[C@@H](C)CC)/C=C/[C@@H]1OC(=O)C=C[C@H]1C`, for which the GI50 in the test on PC-3 prostate, in the test on SR leukemia, with MCF7 breast, in the test with BT-549 breast, in the test on NCI/ADR-RES ovarian and with SF-295 CNS was below 0.01 µM throughout. The GI50 with HS 578T breast, in the test on COLO 205 colon, with ACHN renal and in the test on OVCAR-5 ovarian was below 0.01 µM throughout. Also, the TGI is 1.52 µM in the test on PC-3 prostate; 0.115 µM with SR leukemia; 1.23 µM with MCF7 breast; 1.75 µM with BT-549 breast; 2.17 µM with NCI/ADR-RES ovarian; 1.95 µM in the test with HS 578T breast. The TGI with COLO 205 colon is below 0.0166 µM; in the test on ACHN renal it was 1.11 µM; in the test on OVCAR-5 ovarian, 1.8 µM.

Regarding `C/C1=C/C(=O)O[C@@H]2C[C@@H](CC[C@H](C)/C=C\C=C\CC1)O[C@@](O)([C@@H]1CSC(=O)N1)C2`, the TGI with PC-3 prostate was above 10 µM; in the test on SR leukemia, above 10 µM; in the test with MCF7 breast, above 10 µM; with BT-549 breast it was above 2.59 µM; in the test with NCI/ADR-RES ovarian it was above 10 µM; with SF-295 CNS it was above 8.93 µM. Moreover, the TGI in the test on HS 578T breast was 0.512 µM; with COLO 205 colon, 0.36 µM; in the test on ACHN renal, above 10 µM; with OVCAR-5 ovarian it was above 10 µM.

For the compound `CC(C)(C)c1cc(-n2c(-c3ccc(Cl)cc3)nc3cc(C(=O)Nc4ccc(Cl)cc4)ccc32)n[nH]1`, the GI50 in the test on PC-3 prostate was 3.29 µM; in the test on SR leukemia, above 100 µM; in the test on MCF7 breast, 3.93 µM; in the test on BT-549 breast it was 5.75 µM; in the test with NCI/ADR-RES ovarian, 4.17 µM; in the test on SF-295 CNS it was 2.93 µM. Moreover, the GI50 with HS 578T breast is 7.91 µM; in the test on COLO 205 colon, 4.71 µM; with ACHN renal, 5.18 µM; in the test on OVCAR-5 ovarian, above 100 µM. The TGI with PC-3 prostate, with SR leukemia, with MCF7 breast, in the test on BT-549 breast, in the test on NCI/ADR-RES ovarian and with SF-295 CNS was above 100 µM in each case. Moreover, the TGI with HS 578T breast is 93 µM; with COLO 205 colon, above 100 µM; in the test with ACHN renal it was above 100 µM; with OVCAR-5 ovarian, above 100 µM.

For `O=C(O)C1(C(=O)O)CCC1.[NH2-].[NH2-].[Pt+2]`, the GI50 in the test on PC-3 prostate is above 250 µM; in the test with SR leukemia it was 94.6 µM; in the test with MCF7 breast, 137 µM and 248 µM; with BT-549 breast, 97.5 µM and 200 µM; with NCI/ADR-RES ovarian, 171 µM and 168 µM; with SF-295 CNS it was 63.1 µM and 111 µM. For the same compound, the GI50 is 73.6 µM and 121 µM in the test on HS 578T breast; 224 µM and > 250 µM in the test on COLO 205 colon; 81.2 µM in the test on ACHN renal; 233 µM and > 250 µM with OVCAR-5 ovarian. Moreover, the TGI in the test on PC-3 prostate is above 250 µM; in the test with SR leukemia, above 230 µM; with MCF7 breast, above 250 µM; in the test with BT-549 breast, above 250 µM; with NCI/ADR-RES ovarian, 228 µM and > 250 µM; with SF-295 CNS, 236 µM and > 250 µM. The TGI was above 250 µM in the test on HS 578T breast, above 250 µM in the test on COLO 205 colon, above 239 µM in the test with ACHN renal and above 250 µM in the test on OVCAR-5 ovarian.

On to `CC(=O)c1c(C)[nH]c(-c2nc3ccc(N4CCN(C)CC4)cc3[nH]2)c1-c1ccc(N(C)C)cc1`, for which the GI50 in the test with PC-3 prostate is 0.894 µM; with SR leukemia, 0.923 µM; in the test with MCF7 breast it was 0.24 µM; in the test on BT-549 breast, 3.05 µM; in the test on NCI/ADR-RES ovarian it was 0.916 µM; in the test with SF-295 CNS, 1.55 µM. Besides, the GI50 in the test with HS 578T breast was 0.396 µM; in the test on COLO 205 colon it was 0.292 µM; in the test on ACHN renal, 0.773 µM; with OVCAR-5 ovarian, 1.8 µM. Further, the TGI in the test with PC-3 prostate is 66.9 µM; in the test with SR leukemia it was 6.81 µM; with MCF7 breast it was 7.78 µM; with BT-549 breast, 18.6 µM; in the test with NCI/ADR-RES ovarian it was above 100 µM; in the test with SF-295 CNS, 14.8 µM. Besides, the TGI in the test on HS 578T breast was 7.23 µM; in the test on COLO 205 colon, 14 µM; with ACHN renal, 12.6 µM; in the test on OVCAR-5 ovarian, above 65 µM.

The record behind these values is PubChem BioAssay (NCI).
